According to paper PMC10878397, “Development of Potent Dual BET/HDAC Inhibitors via Pharmacophore Merging and Structure-Guided Optimization” (ACS Chemical Biology, 2024):
Values joined by “and” are separate entries in the source; they are usually repeats but may differ in a detail not shown here. Equal values may be shown once. Read-outs that look alike come from different tables or passages of the source.

Key:
BRD4 bromodomains = BRD4 bromodomains (Homo sapiens, UniProt O60885); assay: NanoBRET target engagement assay, both bromodomains; assay type: cell-based; details: BD1 and BD2, intact cells; read-out: NanoBRET EC50 BRD4 bromodomains
Method: (§1) The assay was performed as described previously.[17],[59] In brief, BRD4 bromodomains and full-length HDACs were obtained as plasmids cloned in-frame with a terminal NanoLuc fusion (Promega). Plasmids were transfected into HEK293T cells using FuGENE HD (Promega, E2312), and proteins were allowed to express for 20 h. Serially diluted inhibitor and the corresponding NanoBRET Tracer (Promega) at a concentration determined previously as the tracer KD, app were pipetted into white 384-well plates (Greiner #781207) for BRD assays or white 96-well plates (Corning #3600) for HDAC using an Echo acoustic dispenser (Labcyte). The corresponding protein-transfected cells were added and reseeded at a density of 2 × 10^5 cells/mL after trypsinization and resuspended in Opti-MEM without phenol red (Life Technologies). The system was allowed to equilibrate for 2 h at 37 °C/5% CO2 prior to BRET measurements. To measure BRET, NanoBRET NanoGlo substrate + Extracellular NanoLuc Inhibitor (Promega, N2540) was added as per the manufacturer’s protocol, and filtered luminescence was measured on a PHERAstar plate reader (BMG Labtech) equipped with a luminescence filter pair (450 nm BP filter (donor) and 610 nm LP filter (acceptor)). For lysed-mode NanoBRET experiments, digitonin (Promega, #G9441) was added as per the manufacturer’s instructions to a final concentration of […].

BRD4 BD1 [1] = molecular target: T1, BRD4 BD1 (Homo sapiens, UniProt O60885); assay: DSF thermal shift assay; assay type: binding; set-up: purchased in-house (SGC Frankfurt recombinant bromodomain DSF panel)
Method: (§2) The effects of inhibitor binding on the apparent melting temperature of recombinant bromodomains were determined by DSF in a 96-well plate (Starlab) at a protein concentration of 2 μM with 10 μΜ compound in buffer containing 25 mM HEPES, pH 7.5, 150 mM NaCl, and 0.5 mM TCEP. […] Protein unfolding profiles were recorded using an MX3005P real-time qPCR instrument (Agilent; excitation/emission filters = 492/610 nm) while increasing the temperature from 25 to 95 °C at a heating rate of 3 °C/min. Tm values were calculated after fitting the fluorescence curves to the Boltzmann equation. Differences in melting temperature upon compound binding are given as ΔTm = Tm (protein with inhibitor) – Tm (protein with DMSO control). Measurements were performed in triplicates.

BRD4 BD2 [2] = molecular target: T2, BRD4 BD2 (Homo sapiens, UniProt O60885); assay: DSF thermal shift assay; assay type: binding; set-up: purchased in-house (SGC Frankfurt recombinant bromodomain DSF panel)
Method: as §2

BRD4 BD1 [3] = molecular target: T1, BRD4 BD1; assay: NanoBRET target engagement assay (HEK293T); assay type: cell-based; set-up: BRD4 bromodomains and full-length HDACs were obtained as plasmids cloned in-frame with a terminal NanoLuc fusion; host or cells: HEK293T
Method: as §1

BRD4 BD2 [4] = molecular target: T2, BRD4 BD2; assay: NanoBRET target engagement assay (HEK293T); assay type: cell-based; set-up: BRD4 bromodomains and full-length HDACs were obtained as plasmids cloned in-frame with a terminal NanoLuc fusion; host or cells: HEK293T
Method: as §1

HDAC1 = HDAC1 (Homo sapiens, UniProt Q13547); assay: NanoBRET target engagement assay (HEK293T); assay type: cell-based; set-up: BRD4 bromodomains and full-length HDACs were obtained as plasmids cloned in-frame with a terminal NanoLuc fusion; host or cells: HEK293T
HDAC1, sequence (Q13547 whole entry, the tested form may be a part): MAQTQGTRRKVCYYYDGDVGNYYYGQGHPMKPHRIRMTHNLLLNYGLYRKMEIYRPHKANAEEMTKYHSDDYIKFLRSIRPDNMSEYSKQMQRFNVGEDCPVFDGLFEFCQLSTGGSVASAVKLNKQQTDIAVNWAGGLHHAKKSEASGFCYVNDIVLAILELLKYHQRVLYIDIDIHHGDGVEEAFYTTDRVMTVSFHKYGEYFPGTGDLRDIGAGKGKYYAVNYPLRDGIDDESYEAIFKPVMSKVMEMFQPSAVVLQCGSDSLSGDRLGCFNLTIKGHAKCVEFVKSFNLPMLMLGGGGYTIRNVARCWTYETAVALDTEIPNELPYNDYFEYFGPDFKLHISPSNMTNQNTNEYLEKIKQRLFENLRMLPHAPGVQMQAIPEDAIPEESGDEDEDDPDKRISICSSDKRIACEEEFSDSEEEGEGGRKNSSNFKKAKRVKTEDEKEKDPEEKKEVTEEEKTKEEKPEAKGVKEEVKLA
Method: (§3) The assay was performed as described previously.[17],[59] In brief, BRD4 bromodomains and full-length HDACs were obtained as plasmids cloned in-frame with a terminal NanoLuc fusion (Promega). Plasmids were transfected into HEK293T cells using FuGENE HD (Promega, E2312), and proteins were allowed to express for 20 h. […] The corresponding protein-transfected cells were added and reseeded at a density of 2 × 10^5 cells/mL after trypsinization and resuspended in Opti-MEM without phenol red (Life Technologies). The system was allowed to equilibrate for 2 h at 37 °C/5% CO2 prior to BRET measurements. […] For lysed-mode NanoBRET experiments, digitonin (Promega, #G9441) was added as per the manufacturer’s instructions to a final concentration of […].

HDAC2 = HDAC2 (Homo sapiens, UniProt Q92769); assay: NanoBRET target engagement assay (HEK293T); assay type: cell-based; set-up: BRD4 bromodomains and full-length HDACs were obtained as plasmids cloned in-frame with a terminal NanoLuc fusion; host or cells: HEK293T
HDAC2, sequence (Q92769 whole entry, the tested form may be a part): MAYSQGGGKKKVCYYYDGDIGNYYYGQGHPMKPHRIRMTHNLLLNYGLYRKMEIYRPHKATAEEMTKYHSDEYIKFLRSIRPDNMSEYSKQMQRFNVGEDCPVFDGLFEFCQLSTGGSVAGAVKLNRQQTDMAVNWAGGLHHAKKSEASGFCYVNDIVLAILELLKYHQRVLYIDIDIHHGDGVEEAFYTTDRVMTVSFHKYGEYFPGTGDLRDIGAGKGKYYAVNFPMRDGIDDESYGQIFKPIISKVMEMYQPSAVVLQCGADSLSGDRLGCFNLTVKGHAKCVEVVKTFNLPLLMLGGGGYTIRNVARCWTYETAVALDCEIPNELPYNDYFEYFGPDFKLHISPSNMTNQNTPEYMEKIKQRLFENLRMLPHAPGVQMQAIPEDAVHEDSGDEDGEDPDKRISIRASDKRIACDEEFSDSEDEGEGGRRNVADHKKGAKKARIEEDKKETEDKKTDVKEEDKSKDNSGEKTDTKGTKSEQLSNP
Method: as §3

[5] = set-up: method as in PMID 30649740; details: cited from earlier work
HCC2429 cells = assay: CellTiter-Glo cell viability assay; assay type: cell-based; details: Homo sapiens, HCC2429, 72 h; treatment for 3 days
Method: (§4) PDAC cell line PaTu8988T was obtained from ATCC and cultured in Dulbecco’s modified Eagle’s medium (DMEM) containing 10% FBS, 25 mM glucose, […], 1 mM sodium pyruvate, and 1% penicillin–streptomycin. Nut midline carcinoma cell line HCC2429 was kindly provided by Lead Discovery Center GmbH (Dortmund, Germany) and was cultured in RPMI1640 medium containing 10% FBS, 2 mM L-glutamine, and 1% penicillin–streptomycin. Cell line PaTu8988T was authenticated using the Multiplex human Cell line Authentication Test (MCA) by Multiplexion GmbH, and cell line HCC2429 was authenticated using short tandem repeat (STR) profiling.
(§5) The assays were performed using Promega’s CellTiter-Glo Luminescent Cell Viability Assay kit (Cat. #G7571). First, compounds dissolved in DMSO were printed in 96-well plates (Corning) by using a Tecan D300e digital dispenser. Then, cells were seeded into the compound-printed plates using a Thermo Multidrop reagent dispenser. 72 h later, one volume of diluted CellTiter-Glo reagent (1:4 dilution with PBS) was added to individual wells by using the Thermo Multidrop reagent dispenser again. Plates were shaken for 2 min and incubated for 10 min in the dark. Luminescent signals were read by using a Tecan Spark Multimode Microplate Reader. The values were normalized to the DMSO control wells and presented as a percentage of cell viability. Dose–response curves were drawn with GraphPad Prism 8.

PaTu8988T cells = assay: CellTiter-Glo cell viability assay; assay type: cell-based; details: Homo sapiens, PaTu 8988t, 72 h; treatment for 3 days
Method: as §4, §5

[6] = 10 μM compound, 2 μM protein, read-out: DSF ΔTm BRD4 BD1
[7] = 10 μM compound, 2 μM protein, read-out: DSF ΔTm BRD4 BD2

SMILES	DSF ΔTm BRD4 BD2 (BRD4 BD2 [2]; 10 μM compound, 2 μM protein) [K]	EC50 (BRD4 BD1 [3]; intact cells) [nM]	EC50 (BRD4 BD2 [4]; intact cells) [nM]	EC50 (HDAC1; intact cells)	EC50 (HDAC1; lysed cells (digitonin)) [µM]	EC50 (HDAC2; intact cells)	ΔTm at 10 µM (BRD4 BD1 [1]; [6]) [°C]	ΔTm at 10 µM (BRD4 BD2 [2]; [7]) [°C]	IC50 (HCC2429 cells) [nM]	IC50 (PaTu8988T cells) [µM]	further results
Cn1cc(-c2ccc3cc(C(=O)Nc4ccccc4N)ccc3n2)c2cc[nH]c2c1=O [NB437]	4.8 ± 0.2	180 ± 30	200 ± 30	23.2 µM and 23 µM	11 ± 1.8	24.8 µM and 25 µM					EC50 (BRD4 bromodomains): 100 to 400 nM; DSF ΔTm BRD4 BD1 (BRD4 BD1 [1]; 10 μM compound, 2 μM protein): 4.0 ± 0.2 K; ΔTm at 10 µM (BRD4 BD1 [1]; read-out: DSF ΔTm BRD4 BD1, 10 μM compound, 2 μM protein): 4 to 5 °C; ΔTm at 10 µM (BRD4 BD2 [2]; read-out: DSF ΔTm BRD4 BD2, 10 μM compound, 2 μM protein): 4 to 5 °C
O=C(CCCCCCC(=O)Nc1ccccc1)NO [SAHA, suberoyl anilide hydroxamic acid]											metabolic half-life [5]: 2 h
Cn1cc(-c2ccc(C(=O)Nc3ccccc3N)cc2N)c2cc[nH]c2c1=O [NB469]		3700 ± 500	2100 ± 400	34.4 ± 5.8 µM	32.2 ± 7.1	39.7 ± 9 µM	0.9 ± 0.2	1.7 ± 0.3			
CC(=O)Nc1ccc(C(=O)Nc2ccccc2N)cc1 [CI-994, reference compound]									1800 ± 200	13.1 ± 2.4	EC50 (BRD4 BD1 [3]; lysed cells (digitonin)): > 50000 nM; EC50 (BRD4 BD2 [4]; lysed cells (digitonin)): > 50000 nM
Cc1cc(/N=N/c2ccc(C(=O)Nc3ccccc3N)cc2)c2cc[nH]c2c1O [NB390]		190 ± 30	50 ± 10	2.1 ± 0.7 µM		1.3 ± 0.9 µM	7.5 ± 0.2	5.2 ± 0.2			
Cc1cc(/N=N/c2ccc(S(=O)(=O)Nc3ccccn3)cc2)c(N)cc1O [MS436, reference compound]	2.9 ± 0.1			18.8 ± 1 µM	> 50	> 50 µM	4 ± 0.4	~3	810 ± 150	10.4 ± 1.2	EC50 (HDAC2; lysed cells (digitonin)): > 50 µM
